Results on 19 compounds are retold here after ChEMBL document CHEMBL1149803, “Synthesis and anticonvulsant activity of some novel 3-aryl amino/amino-4-aryl-5-imino-Delta2-1,2,4-thiadiazoline” (Eur J Med Chem, 2008).

In data set [1] the test system is Mus musculus. The data set is described as follows: Anticonvulsant activity in ip dosed CF1 albino mouse assessed as prevention of subcutaneous pentylenetetrazole-induced seizure after 0.5 hrs. It is filed as functional.
For data set [2], the system named is Mus musculus. The data set is described as follows: Anticonvulsant activity in CF1 albino mouse assessed as prevention of subcutaneous pentylenetetrazole-induced seizure at 300 mg/kg, ip after 4 hrs. The arrangement: dose 300 mg/kg. It is filed as functional, organism-based.
Data set [3] concerns Mus musculus. The data set is described as follows: Anticonvulsant activity in ip dosed CF1 albino mouse assessed as prevention of maximal electroshock-induced seizures after 4 hrs. The format is functional. For orientation: In the maximal electroshock model the usual endpoint is tonic extension of the hind limbs.
The test system of data set [4] is Mus musculus. The data set is described as follows: Neurotoxicity in ip dosed CF1 albino mouse after 0.5 hrs by rotarod test. The format is toxicity, organism-based. Particulars: in vivo. On the technique in general: Falling from the rotarod earlier than controls is read as motor impairment.
Data set [5] concerns Mus musculus. The data set is described as follows: Anticonvulsant activity in ip dosed CF1 albino mouse assessed as prevention of maximal electroshock-induced seizures after 0.5 hrs. It is filed as functional.
The subject of data set [6] is Rattus norvegicus. The data set is described as follows: Sedative-hypnotic effect in Sprague-Dawley albino rat assessed as increase in sleep time at 100 mg/kg, ip by phenobarbitone-induced hypnosis test. It is filed as functional. Particulars: route intraperitoneal.
For data set [7], the system named is Mus musculus. The data set is described as follows: Anticonvulsant activity in CF1 albino mouse assessed as prevention of maximal electroshock-induced seizures at 300 mg/kg, ip after 4 hrs. The format is functional, organism-based. More on the design: dose 300 mg/kg.
In data set [8] the test system is Mus musculus. The data set is described as follows: Anticonvulsant activity in CF1 albino mouse assessed as prevention of subcutaneous pentylenetetrazole-induced seizure at 300 mg/kg, ip after 0.5 hrs. It is filed as functional, organism-based. More on the design: dose 300 mg/kg.
The subject of data set [9] is Mus musculus. The data set is described as follows: Neurotoxicity in ip dosed CF1 albino mouse after 4 hrs by rotarod test. It is filed as toxicity, organism-based. Particulars: in vivo.
Data set [10] concerns Mus musculus. The data set is described as follows: Anticonvulsant activity in CF1 albino mouse assessed as prevention of maximal electroshock-induced seizures at 300 mg/kg, ip after 0.5 hrs. It is filed as functional, organism-based. More on the design: dose 300 mg/kg.

Structures are written as SMILES. Calls of active or inactive are those of the source. The calls are words filed in the database; no cut-off is given here.

In the case of `CCOc1ccc(Nc2nsc(=N)n2-c2ccc(OCC)cc2)cc1`, the Activity came out at 300 mg/kg in data set [1]; 300 mg/kg in data set [3]; 300 mg/kg in [4]; 30 mg/kg in data set [5]; 55.6% in data set [6]. Moreover, the result in [2] was inactive.
Take `N=c1snc(N)n1-c1ccccn1`: the result in [2], in data set [7] and in data set [8] was inactive. In addition, the Activity was 100 mg/kg in [4] and 300 mg/kg in data set [5].
Regarding `N=c1snc(Nc2ccncc2)n1-c1ccncc1`, the outcome in [2], in [7] and in data set [8] was inactive. For the same compound, the Activity stood at 100 mg/kg in data set [4] and 300 mg/kg in [5].
`COc1ccc(-n2c(N)nsc2=N)cc1`: the result in data set [2], in data set [7] and in data set [8] was inactive. In addition, in data set [5], the Activity is 300 mg/kg.
For `CCOc1ccc(-n2c(N)nsc2=N)cc1`, the result in [2], in [7] and in data set [8] was inactive. The Activity in [4] came out at 100 mg/kg; in data set [5], 100 mg/kg; in data set [6] it was 46.8%.
As for `N=c1snc(Nc2ccc(F)cc2)n1-c1ccc(F)cc1`, the result in data set [2] and in data set [8] was inactive. In addition, the Activity in [3] is 300 mg/kg; in data set [4], 300 mg/kg; in data set [5] it was 100 mg/kg; in data set [6], 5.1%.
Turning to `NC(=O)N1c2ccccc2C=Cc2ccccc21` [CARBAMAZEPINE], the Activity in data set [1] amounted to 100 mg/kg; in data set [9] it was 300 mg/kg; in data set [4] it was 100 mg/kg; in data set [5], 30 mg/kg. Moreover, the result in data set [2] and in [7] was inactive.
With `N=c1snc(N)n1-c1ncccn1`, the outcome in [2], in data set [7], in [8] and in data set [10] was inactive. The same compound had an Activity in [4] of 100 mg/kg.
Regarding `N=c1snc(Nc2cccc3ccccc23)n1-c1cccc2ccccc12`, the outcome in data set [2] and in [8] was inactive. Moreover, the Activity in data set [3] was 300 mg/kg; in [4], 300 mg/kg; in data set [5], 30 mg/kg; in data set [6], 16.4%.
For the compound `N=c1snc(Nc2ncccn2)n1-c1ncccn1`, the result in [2], in data set [7] and in data set [8] was inactive. Also, the Activity in data set [4] turned out to be 100 mg/kg; in data set [5], 100 mg/kg; in data set [6], 11.4%.
`N=c1snc(N)n1-c1ccncc1`: the result in [2], in data set [7] and in data set [8] was inactive. Besides, the Activity came out at 100 mg/kg in [4] and 300 mg/kg in data set [5].
As to `N=c1snc(N)n1-c1ccc(Br)cc1`, the outcome in [2], in [7] and in data set [8] was inactive. Also, the Activity in data set [5] came to 300 mg/kg.
For the compound `N=c1snc(Nc2ccccn2)n1-c1ccccn1`, the outcome in data set [2], in data set [7] and in [8] was inactive. Also, the figures for the Activity in [9], in [4] and in data set [5] were 300 mg/kg, 100 mg/kg and 300 mg/kg, respectively.
For `N=c1snc(N)n1-c1ccc(Cl)cc1`, the result in data set [2], in data set [7] and in data set [8] was inactive. In addition, the Activity in data set [4] is 100 mg/kg; in data set [5], 300 mg/kg.
Take `N=c1snc(N)n1-c1cccc2ccccc12`: the result in [2], in [7] and in [8] was inactive. The Activity worked out at 300 mg/kg in data set [9], 300 mg/kg in [4], 30 mg/kg in data set [5] and 8.8% in data set [6].
For the compound `N=c1snc(N)n1-c1ccc(F)cc1`, the result in data set [2] and in data set [8] was inactive. For the same compound, the Activity in data set [3] came out at 300 mg/kg; in [4] it was 100 mg/kg; in data set [5] it was 100 mg/kg; in data set [6] it was 20.2%.
As for `N=c1snc(N)n1-c1cccnc1`, the outcome in data set [2], in data set [7] and in data set [8] was inactive. The values for the Activity in data set [4] and in [5] were 100 mg/kg and 300 mg/kg, respectively.
Turning to `N=c1snc(Nc2cccnc2)n1-c1cccnc1`, the outcome in data set [2], in [7] and in [8] was inactive. The Activity in [4] worked out at 100 mg/kg; in [5], 300 mg/kg.
With `O=C1NC(=O)C(c2ccccc2)(c2ccccc2)N1` [PHENYTOIN], the result in data set [2] and in data set [8] was inactive. For the same compound, the Activity in [3] was found to be 100 mg/kg; in data set [9] it was 100 mg/kg; in data set [4], 100 mg/kg; in data set [5], 30 mg/kg.
